Measurements as given in paper PMC6481325, “Novel N,N-dialkyl cyanocinnamic acids as monocarboxylate transporter 1 and 4 inhibitors” (Oncotarget, 2019).
“Also recorded” adds a separate entry of the source. Where two headings read alike, the source gives them in different places.

Key:
MCT4 = target: T1, MCT4 (Homo sapiens, UniProt O15427); experiment: L-[14C]-lactate uptake study in MCT4 expressing MDA-MB-231 cells; type: cell-based; conditions: read-out: MCT4 IC50
T1 construct: These cells predominantly express MCT4 as confirmed by Western blot and quantitative PCR analysis; host or cells: MDA-MB-231
T1 sequence (O15427 2-465 limits assumed): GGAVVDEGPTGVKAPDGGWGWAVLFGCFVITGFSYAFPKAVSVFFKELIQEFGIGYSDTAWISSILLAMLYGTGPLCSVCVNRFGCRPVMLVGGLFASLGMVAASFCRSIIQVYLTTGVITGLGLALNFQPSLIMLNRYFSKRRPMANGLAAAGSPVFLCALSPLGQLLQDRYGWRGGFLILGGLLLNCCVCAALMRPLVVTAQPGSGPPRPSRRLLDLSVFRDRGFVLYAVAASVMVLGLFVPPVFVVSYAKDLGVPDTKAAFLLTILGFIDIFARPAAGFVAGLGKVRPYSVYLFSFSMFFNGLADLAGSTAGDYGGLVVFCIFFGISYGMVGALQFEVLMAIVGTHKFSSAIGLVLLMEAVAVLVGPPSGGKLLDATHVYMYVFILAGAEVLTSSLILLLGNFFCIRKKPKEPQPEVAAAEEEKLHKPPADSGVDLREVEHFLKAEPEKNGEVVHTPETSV
T1 sequence (P35613 140-385 partner limits assumed): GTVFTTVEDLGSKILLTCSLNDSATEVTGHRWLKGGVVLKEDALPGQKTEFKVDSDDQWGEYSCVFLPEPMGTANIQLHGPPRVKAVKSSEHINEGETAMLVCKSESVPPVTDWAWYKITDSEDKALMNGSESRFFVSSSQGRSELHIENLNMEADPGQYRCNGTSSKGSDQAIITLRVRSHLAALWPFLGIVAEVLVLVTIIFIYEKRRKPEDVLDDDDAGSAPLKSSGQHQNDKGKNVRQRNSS
Experimental: In this study, an L-[^14C]-lactate based transport assay was developed by us to quantify MCT4 transport and its inhibition by test compounds. […] For the MCT4 transport assay, the pH of HEPES buffer with L-[^14C]-lactate was adjusted to 7.0 such that lactate influx into the cells was aided by the pH gradient. […] Test compounds were diluted to working concentration in HEPES buffer (140 mM NaCl, 5 mM KCl, 2 mM CaCl2, 2 mM MgCl2, 10 mM HEPES, pH 7.0) containing 3 μM L-[^14C]-lactate (Perkin Elmer) and 2 μM L-lactate. […] HEPES buffer was replaced with 250 μL test solution. After 1 hour, media was replaced with 500 μL ice-cold stop buffer (0.1 mM CHC solution in HBS, pH 7.4) and the plates were placed on ice. Cells were washed twice with ice-cold stop buffer and solubilized using 250 μL of 0.1 M NaOH in 5% Triton-X (Millipore Sigma). A 150 μL aliquot from each well was added to 4 mL EcoLite(+)™ scintillation fluid (MP Biomedicals) and radioactivity was determined by scintillation spectrometry. Inhibition by each test solution was calculated as a percentage of the maximum control uptake. CHC and dimethylsulfoxide (DMSO) were used as controls. […]

[1] = set-up: method as in ref 32 = [32]; PMID 26005533; doi:10.1021/acsmedchemlett.5b00049; 32 Gurrapu S Jonnalagadda SK Alam MA Nelson GL Sneve MG Drewes LR Mereddy VR Monocarboxylate transporter 1 inhibitors as potential anticancer agents ACS Med Chem Lett 2015 6 558 61 10.1021/acsmedcheml; conditions: in vivo; cited from earlier work
[2] = test system: MCT1 expressing WiDr cells; experiment: Seahorse XFe96 glycolysis stress test (ECAR), WiDr; type: cell-based; conditions: 30 μM
Experimental: In the GST, three parameters namely glycolysis, glycolytic capacity and glycolytic reserve were measured.
Extracellular acidification rates (ECAR) and oxygen consumption rates (OCR) were recorded in real-time for glycolysis stress test (GST) and mitochondrial stress test (MST), respectively, using Agilent Seahorse XFe96® analyzer.

COc1cc(N(c2ccccc2)c2ccccc2)ccc1/C=C(\C#N)C(=O)O [Phenyl (9)]
IC50 (MCT4; Figure 1A and text, lactate uptake): 0.023 µM
IC50 (MCT4; Supplementary Table 1, average ± SEM): 0.018 ± 0.008 µM
elimination from plasma [1]: most of the compound was eliminated in less than one hour
time of peak plasma concentration [1]: 15 min
glycolytic capacity (GST, ECAR) [2]: decreased; also recorded: significant decrease
glycolytic reserve (GST, ECAR) [2]: completely arrested; also recorded: significant decrease
